B1: p14: fusogenic p14 FAST fusion protein from reptilian reovirus, SEQ ID NO: 16 (protein, listed as Homo sapiens)
chain: MGSGPSNFVNHAPGEAIVTGLEKGADKVAGTISHTIWEVIAGLVALLTFLAFGFWLFKYLQKRRERRRQLTEFQKRYLRNSYRLSEIQRPISQHEYEDPYEPPSRRKPPPPPYSTYVNIDNVSAI

Columns and labels:
[1] = system: Human prostate cancer PC-3 cells; test: Western blot of iCasp9 and Casp9 protein levels in PC-3 cells; type: cell-based; details: PC-3 cells treated with Fusogenix lipid nanoparticles carrying pVax-p53-iCasp9-luc plasmid
Description: FIG. 36 is a Western blot of iCasp 9 and Casp 9 protein levels obtained with p53-expressing cells (pVax-p53) and control cells (pcDNA3-GFP). Human prostate cancer PC-3 cells were treated with Fusogenix lipid nanoparticles carrying the pVax-p53-iCasp9-luc (luciferin) plasmid (in the presence and absence of the homodimerizer AP201870) and assessed for iCasp9 expression.
Human prostate cancer PC-3 cells were treated with Fusogenix lipid nanoparticles carrying the pVax-p53-iCasp9-luc (luciferin) plasmid (in the presence and absence of the homodimerizer AP201870) and assessed for iCasp9 expression and subjected to Western blot analysis of iCasp 9 and Casp 9 protein levels obtained with p53-expressing cells (pVax-p53) and control cells (pcDNA3-GFP). FIG. 36.

[2] = humans; cited from earlier work
[3] = system: Human prostate cancer (LNCaP, DU145, PC-3) or normal epithelial (RWPE) cells; test: Western blot and luminescence assays of iCasp9 expression in prostate cancer and normal epithelial cells; type: cell-based; details: DU145, PC-3, RWPE cells treated with Fusogenix lipid nanoparticles carrying pVax-p53-iCasp9-luc plasmid
[4] = system: Human prostate cancer PC-3 cells; test: Luminescence assay of iCasp9 expression in PC-3 cells; type: cell-based; details: PC-3 cells treated with Fusogenix lipid nanoparticles carrying pVax-p53-iCasp9-luc plasmid
Description: FIG. 42 is a bar graph of data from a luminescence assay of iCasp 9 and Casp 9 protein levels obtained with the p53-expressing cells presented in FIG. 36 (pVax-p53) and control cells (pcDNA3-GFP). Human prostate cancer PC-3 cells were treated with Fusogenix lipid nanoparticles carrying the pVax-p53-iCasp9-luc (luciferin) plasmid (in the presence and absence of the homodimerizer AP20187) and assessed for iCasp9 expression.
Human prostate cancer PC-3 cells were treated with Fusogenix lipid nanoparticles carrying the pVax-p53-iCasp9-luc (luciferin) plasmid (in the presence and absence of the homodimerizer AP20187) and assessed for iCasp9 expression.

[5] = Anti-p14 and anti-LNP antibody response in immune competent mice; type: in vivo; details: with adjuvant: 3 injections of 50 μg p14 with Freund's adjuvant at 10 day intervals; sera after 30 days
Description: Mice were injected three (3) times at 10 day intervals with purified p14 mixed with Freund's adjuvant. A first dose contained CFA (complete Freund's adjuvant) while second and third doses contained IFA (incomplete Freund's adjuvant). Each injection was with 50 μg of p14. Mice were sacrificed after 30 days and sera was analyzed for anti-p14 antibodies. p14 lipid nanoparticles were also tested in two (2) mice via intravenous injection of 400 μg of p53-iCasp9 Fusogenix lipid nanoparticles containing 240 μg of p14. Mice were sacrificed after 30 days of injection and serum was analyzed for anti-p14 antibodies. A positive control included purified antibodies spiked in serum at a high dose of 250 ng/ml and a low dose of 50 ng/ml.

Molecule	expression of iCasp9 and luciferase after addition of CID [1]	intravenous safety [2]	expression of iCasp9 and luciferase after addition of CID [3]	expression of iCasp9 and luciferase after addition of CID [4]	anti-p14 antibody response [5]
CC[C@H](C(=O)N1CCCC[C@H]1C(=O)O[C@H](CCc1ccc(OC)c(OC)c1)c1cccc(OCC(=O)NCCNC(=O)COc2cccc([C@@H](CCc3ccc(OC)c(OC)c3)OC(=O)[C@@H]3CCCCN3C(=O)[C@@H](CC)c3cc(OC)c(OC)c(OC)c3)c2)c1)c1cc(OC)c(OC)c(OC)c1 [AP1903]	abolishes the expression of iCasp9 and luciferase	confirmed	abolishes the expression of iCasp9 and luciferase	abolishes the expression of iCasp9 and luciferase	–
CC[C@H](C(=O)N1CCCC[C@H]1C(=O)O[C@H](CCc1ccc(OC)c(OC)c1)c1cccc(OCC(=O)NCC(CNC(=O)COc2cccc([C@@H](CCc3ccc(OC)c(OC)c3)OC(=O)[C@@H]3CCCCN3C(=O)[C@@H](CC)c3cc(OC)c(OC)c(OC)c3)c2)CN(C)C)c1)c1cc(OC)c(OC)c(OC)c1 [AP20187]	abolishes the expression of iCasp9 and luciferase	–	abolishes the expression of iCasp9 and luciferase	abolishes the expression of iCasp9 and luciferase	–
B1	–	–	–	–	virtually no antibody response

— patent US11603543B2, “Fusogenic lipid nanoparticles for target cell-specific production of a therapeutic protein” (Oisin Biotechnologies, Inc., priority 2018, dated 2023)
